# Measured values from patent US11109593B2, “Isoxazolin-5-one derivative and herbicide containing same as active ingredient” (HOKKO CHEMICAL INDUSTRY CO., LTD., priority 2017, dated 2021).
# Tested on: Echinochloa crus-galli
# Test: Test Example 1: herbicidal effect test by treatment of rice paddy soil (immediately after seeding)
# Type: in vivo
# Settings: 120 g/10a active ingredient, dry weight vs untreated area, 14 days after treatment
# Method in brief: (§1)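 Paddy soil in pots with compound fertilizer, puddled; 30 seeds per species sown at 0–1 cm, flooded ~3 cm, greenhouse. Water-diluted emulsions dropped onto water immediately after seeding at 120 g active ingredient per 10 ares, duplicate. Herbicidal rate (%) from plant dry weight versus untreated, 14 days after treatment.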
row,SMILES,Herbicidal rate (%) Echinochloa crus-galli [%]
1,Cc1c(Cc2ccccc2N(S(=O)(=O)C(F)(F)F)S(=O)(=O)C(F)(F)F)c(=O)on1CC(C)c1ccccc1 (stereo not drawn) [Compound 1-1046],100
2,CSCCn1oc(=O)c(Cc2ccccc2N(S(=O)(=O)C(F)(F)F)S(=O)(=O)C(F)(F)F)c1C [Compound 1-1002],100
3,CCCCCC(c1ccccc1)n1oc(=O)c(Cc2ccccc2N(S(=O)(=O)C(F)(F)F)S(=O)(=O)C(F)(F)F)c1C (stereo not drawn) [Compound 1-1042],90
4,CSCCCn1oc(=O)c(Cc2ccccc2N(S(=O)(=O)C(F)(F)F)S(=O)(=O)C(F)(F)F)c1C [Compound 1-1003],100
5,Cc1c(Cc2ccccc2NS(=O)(=O)C(F)(F)F)c(=O)on1CC(F)(F)F [Compound 1-134],80

# Tested on: Scirpus juncoides
# Test: as above
# Type: in vivo
# Settings: 120 g/10a active ingredient, dry weight vs untreated area, 14 days after treatment
# Method in brief: as §1
row,SMILES,Herbicidal rate (%) Scirpus juncoides [%]
1,Cc1c(Cc2ccccc2N(S(=O)(=O)C(F)(F)F)S(=O)(=O)C(F)(F)F)c(=O)on1CC(C)c1ccccc1 (stereo not drawn) [Compound 1-1046],90
2,CSCCn1oc(=O)c(Cc2ccccc2N(S(=O)(=O)C(F)(F)F)S(=O)(=O)C(F)(F)F)c1C [Compound 1-1002],100
3,CCCCCC(c1ccccc1)n1oc(=O)c(Cc2ccccc2N(S(=O)(=O)C(F)(F)F)S(=O)(=O)C(F)(F)F)c1C (stereo not drawn) [Compound 1-1042],90
4,CSCCCn1oc(=O)c(Cc2ccccc2N(S(=O)(=O)C(F)(F)F)S(=O)(=O)C(F)(F)F)c1C [Compound 1-1003],90
5,Cc1c(Cc2ccccc2NS(=O)(=O)C(F)(F)F)c(=O)on1CC(F)(F)F [Compound 1-134],80

# Tested on: broad leaf weeds (Lindernia pyxidaria and Monochoria vaginalis)
# Test: as above
# Type: in vivo
# Settings: Lindernia pyxidaria, 120 g/10a active ingredient, dry weight vs untreated area, 14 days after treatment
# Method in brief: as §1
row,SMILES,Herbicidal rate (%) Lindernia pyxidaria [%]
1,Cc1c(Cc2ccccc2N(S(=O)(=O)C(F)(F)F)S(=O)(=O)C(F)(F)F)c(=O)on1CC(C)c1ccccc1 (stereo not drawn) [Compound 1-1046],70
2,CSCCn1oc(=O)c(Cc2ccccc2N(S(=O)(=O)C(F)(F)F)S(=O)(=O)C(F)(F)F)c1C [Compound 1-1002],100
3,CCCCCC(c1ccccc1)n1oc(=O)c(Cc2ccccc2N(S(=O)(=O)C(F)(F)F)S(=O)(=O)C(F)(F)F)c1C (stereo not drawn) [Compound 1-1042],90
4,CSCCCn1oc(=O)c(Cc2ccccc2N(S(=O)(=O)C(F)(F)F)S(=O)(=O)C(F)(F)F)c1C [Compound 1-1003],90
5,Cc1c(Cc2ccccc2NS(=O)(=O)C(F)(F)F)c(=O)on1CC(F)(F)F [Compound 1-134],60

# Same assay, conditions: Monochoria vaginalis, 120 g/10a active ingredient, dry weight vs untreated area, 14 days after treatment
row,SMILES,Herbicidal rate (%) Monochoria vaginalis [%]
1,Cc1c(Cc2ccccc2N(S(=O)(=O)C(F)(F)F)S(=O)(=O)C(F)(F)F)c(=O)on1CC(C)c1ccccc1 (stereo not drawn) [Compound 1-1046],80
2,CSCCn1oc(=O)c(Cc2ccccc2N(S(=O)(=O)C(F)(F)F)S(=O)(=O)C(F)(F)F)c1C [Compound 1-1002],100
3,CCCCCC(c1ccccc1)n1oc(=O)c(Cc2ccccc2N(S(=O)(=O)C(F)(F)F)S(=O)(=O)C(F)(F)F)c1C (stereo not drawn) [Compound 1-1042],80
4,CSCCCn1oc(=O)c(Cc2ccccc2N(S(=O)(=O)C(F)(F)F)S(=O)(=O)C(F)(F)F)c1C [Compound 1-1003],90
5,Cc1c(Cc2ccccc2NS(=O)(=O)C(F)(F)F)c(=O)on1CC(F)(F)F [Compound 1-134],80

# Tested on: Echinochloa crus-galli
# Test: Test Example 2: herbicidal effect test by treatment during growing period in paddy rice cultivation (seven days after seeding)
# Type: in vivo
# Settings: 120 g/10a active ingredient, assessed 14 days after treatment, dry weight vs untreated area
# Method in brief: (§2)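 Paddy soil in Wagner pots with compound fertilizer, puddled; 30 seeds per species sown at 0–1 cm, flooded ~3 cm, greenhouse. Seven days after seeding, water-diluted emulsions were dropped into the water at 120 g active ingredient per 10 ares. Duplicate pots; herbicidal rate from dry weight versus untreated, 14 days after treatment.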
row,SMILES,Herbicidal rate (%) Echinochloa crus-galli [%]
1,Cc1c(Cc2ccccc2N(S(=O)(=O)C(F)(F)F)S(=O)(=O)C(F)(F)F)c(=O)on1CC(C)c1ccccc1 (stereo not drawn) [Compound 1-1046],90
2,CSCCn1oc(=O)c(Cc2ccccc2N(S(=O)(=O)C(F)(F)F)S(=O)(=O)C(F)(F)F)c1C [Compound 1-1002],90
3,CCCCCC(c1ccccc1)n1oc(=O)c(Cc2ccccc2N(S(=O)(=O)C(F)(F)F)S(=O)(=O)C(F)(F)F)c1C (stereo not drawn) [Compound 1-1042],60
4,CSCCCn1oc(=O)c(Cc2ccccc2N(S(=O)(=O)C(F)(F)F)S(=O)(=O)C(F)(F)F)c1C [Compound 1-1003],100
5,Cc1c(Cc2ccccc2NS(=O)(=O)C(F)(F)F)c(=O)on1CC(F)(F)F [Compound 1-134],80

# Tested on: Scirpus juncoides
# Test: as above
# Type: in vivo
# Settings: 120 g/10a active ingredient, assessed 14 days after treatment, dry weight vs untreated area
# Method in brief: as §2
row,SMILES,Herbicidal rate (%) Scirpus juncoides [%]
1,Cc1c(Cc2ccccc2N(S(=O)(=O)C(F)(F)F)S(=O)(=O)C(F)(F)F)c(=O)on1CC(C)c1ccccc1 (stereo not drawn) [Compound 1-1046],90
2,CSCCn1oc(=O)c(Cc2ccccc2N(S(=O)(=O)C(F)(F)F)S(=O)(=O)C(F)(F)F)c1C [Compound 1-1002],80
3,CCCCCC(c1ccccc1)n1oc(=O)c(Cc2ccccc2N(S(=O)(=O)C(F)(F)F)S(=O)(=O)C(F)(F)F)c1C (stereo not drawn) [Compound 1-1042],70
4,CSCCCn1oc(=O)c(Cc2ccccc2N(S(=O)(=O)C(F)(F)F)S(=O)(=O)C(F)(F)F)c1C [Compound 1-1003],90
5,Cc1c(Cc2ccccc2NS(=O)(=O)C(F)(F)F)c(=O)on1CC(F)(F)F [Compound 1-134],80

# Tested on: broad leaf weeds (Lindernia pyxidaria and Monochoria vaginalis)
# Test: as above
# Type: in vivo
# Settings: Lindernia pyxidaria, 120 g/10a active ingredient, assessed 14 days after treatment, dry weight vs untreated area
# Method in brief: as §2
row,SMILES,Herbicidal rate (%) Lindernia pyxidaria [%]
1,Cc1c(Cc2ccccc2N(S(=O)(=O)C(F)(F)F)S(=O)(=O)C(F)(F)F)c(=O)on1CC(C)c1ccccc1 (stereo not drawn) [Compound 1-1046],60
2,CSCCn1oc(=O)c(Cc2ccccc2N(S(=O)(=O)C(F)(F)F)S(=O)(=O)C(F)(F)F)c1C [Compound 1-1002],60
3,CCCCCC(c1ccccc1)n1oc(=O)c(Cc2ccccc2N(S(=O)(=O)C(F)(F)F)S(=O)(=O)C(F)(F)F)c1C (stereo not drawn) [Compound 1-1042],60
4,CSCCCn1oc(=O)c(Cc2ccccc2N(S(=O)(=O)C(F)(F)F)S(=O)(=O)C(F)(F)F)c1C [Compound 1-1003],70
5,Cc1c(Cc2ccccc2NS(=O)(=O)C(F)(F)F)c(=O)on1CC(F)(F)F [Compound 1-134],40

# Same assay, conditions: Monochoria vaginalis, 120 g/10a active ingredient, assessed 14 days after treatment, dry weight vs untreated area
row,SMILES,Herbicidal rate (%) Monochoria vaginalis [%]
1,Cc1c(Cc2ccccc2N(S(=O)(=O)C(F)(F)F)S(=O)(=O)C(F)(F)F)c(=O)on1CC(C)c1ccccc1 (stereo not drawn) [Compound 1-1046],90
2,CSCCn1oc(=O)c(Cc2ccccc2N(S(=O)(=O)C(F)(F)F)S(=O)(=O)C(F)(F)F)c1C [Compound 1-1002],80
3,CCCCCC(c1ccccc1)n1oc(=O)c(Cc2ccccc2N(S(=O)(=O)C(F)(F)F)S(=O)(=O)C(F)(F)F)c1C (stereo not drawn) [Compound 1-1042],60
4,CSCCCn1oc(=O)c(Cc2ccccc2N(S(=O)(=O)C(F)(F)F)S(=O)(=O)C(F)(F)F)c1C [Compound 1-1003],70
5,Cc1c(Cc2ccccc2NS(=O)(=O)C(F)(F)F)c(=O)on1CC(F)(F)F [Compound 1-134],80

# Tested on: Amaranthus viridis
# Test: Test Example 4: herbicidal effect test by treatment of leave and stem in dry field farming (seven days after seeding)
# Type: in vivo
# Settings: 120 g/10a active ingredient; emulsion sprayed seven days after seeding; evaluated 14 days after treatment
# Description: (§3) This test was conducted in a double system per one agent solution concentration area, and the herbicidal rates (%) were determined by the following equation (Math. 1) on 14 days after the treatment with the agents. Herbicidal Rate (%)={1-(Average Dry Weight (g) of Plant of Treated Area)/(Average Dry Weight (g) of Plant of Untreated Area)}×100 [Math. 1]
# (§4) Herbicidal Effect Test by Treatment of Leave and Stem in Dry Field Farming
# (§5) Pots with a size of 36 cm^2 were filled with a dry field farming soil (alluvium). The soil of the top layer of 1 cm and seeds of weeds, namely southern crabgrass, Echinochloa crus-galli, Chenopodium album and Amaranthus viridis, 20 seeds each, were evenly mixed, and the top layer was gently pressed. Emulsions prepared using the compounds in Table 6 below according to Formulation Example 5 were diluted with water seven days after seeding, and the water-diluted agent solutions were sprayed to the soil surfaces at a ratio of 100 liters per 10 ares. The converted amount of the applied active ingredient corresponded to 120 g per 10 ares. The herbicidal effects were evaluated by the same standard as that in Test Example 1 on 14 days after the treatment with the agents. […] The compound numbers in Table 6 are the same as those in Table 1 and Table 2 above.
row,SMILES,"herbicidal effect (herbicidal rate), Amaranthus viridis [%]"
1,Cc1c(Cc2ccccc2N(S(=O)(=O)C(F)(F)F)S(=O)(=O)C(F)(F)F)c(=O)on1CC(C)c1ccccc1 (stereo not drawn) [Compound 1-1046],90
2,CSCCn1oc(=O)c(Cc2ccccc2N(S(=O)(=O)C(F)(F)F)S(=O)(=O)C(F)(F)F)c1C [Compound 1-1002],50
3,CCCCCC(c1ccccc1)n1oc(=O)c(Cc2ccccc2N(S(=O)(=O)C(F)(F)F)S(=O)(=O)C(F)(F)F)c1C (stereo not drawn) [Compound 1-1042],40
4,CSCCCn1oc(=O)c(Cc2ccccc2N(S(=O)(=O)C(F)(F)F)S(=O)(=O)C(F)(F)F)c1C [Compound 1-1003],40
5,Cc1c(Cc2ccccc2NS(=O)(=O)C(F)(F)F)c(=O)on1CC(F)(F)F [Compound 1-134],50

# Tested on: Chenopodium album
# Test: as above
# Type: in vivo
# Settings: 120 g/10a active ingredient; emulsion sprayed seven days after seeding; evaluated 14 days after treatment
# Description: as §3, §4, §5
row,SMILES,"herbicidal effect (herbicidal rate), Chenopodium album [%]"
1,Cc1c(Cc2ccccc2N(S(=O)(=O)C(F)(F)F)S(=O)(=O)C(F)(F)F)c(=O)on1CC(C)c1ccccc1 (stereo not drawn) [Compound 1-1046],0
2,CSCCn1oc(=O)c(Cc2ccccc2N(S(=O)(=O)C(F)(F)F)S(=O)(=O)C(F)(F)F)c1C [Compound 1-1002],70
3,CCCCCC(c1ccccc1)n1oc(=O)c(Cc2ccccc2N(S(=O)(=O)C(F)(F)F)S(=O)(=O)C(F)(F)F)c1C (stereo not drawn) [Compound 1-1042],40
4,CSCCCn1oc(=O)c(Cc2ccccc2N(S(=O)(=O)C(F)(F)F)S(=O)(=O)C(F)(F)F)c1C [Compound 1-1003],0
5,Cc1c(Cc2ccccc2NS(=O)(=O)C(F)(F)F)c(=O)on1CC(F)(F)F [Compound 1-134],40

# Tested on: Echinochloa crus-galli
# Test: as above
# Type: in vivo
# Settings: 120 g/10a active ingredient; emulsion sprayed seven days after seeding; evaluated 14 days after treatment
# Description: as §3, §4, §5
row,SMILES,"herbicidal effect (herbicidal rate), Echinochloa crus-galli [%]"
1,Cc1c(Cc2ccccc2N(S(=O)(=O)C(F)(F)F)S(=O)(=O)C(F)(F)F)c(=O)on1CC(C)c1ccccc1 (stereo not drawn) [Compound 1-1046],90
2,CSCCn1oc(=O)c(Cc2ccccc2N(S(=O)(=O)C(F)(F)F)S(=O)(=O)C(F)(F)F)c1C [Compound 1-1002],90
3,CCCCCC(c1ccccc1)n1oc(=O)c(Cc2ccccc2N(S(=O)(=O)C(F)(F)F)S(=O)(=O)C(F)(F)F)c1C (stereo not drawn) [Compound 1-1042],0
4,CSCCCn1oc(=O)c(Cc2ccccc2N(S(=O)(=O)C(F)(F)F)S(=O)(=O)C(F)(F)F)c1C [Compound 1-1003],60
5,Cc1c(Cc2ccccc2NS(=O)(=O)C(F)(F)F)c(=O)on1CC(F)(F)F [Compound 1-134],90

# Tested on: southern crabgrass
# Test: as above
# Type: in vivo
# Settings: 120 g/10a active ingredient; emulsion sprayed seven days after seeding; evaluated 14 days after treatment
# Description: as §3, §4, §5
row,SMILES,"herbicidal effect (herbicidal rate), southern crabgrass [%]"
1,Cc1c(Cc2ccccc2N(S(=O)(=O)C(F)(F)F)S(=O)(=O)C(F)(F)F)c(=O)on1CC(C)c1ccccc1 (stereo not drawn) [Compound 1-1046],60
2,CSCCn1oc(=O)c(Cc2ccccc2N(S(=O)(=O)C(F)(F)F)S(=O)(=O)C(F)(F)F)c1C [Compound 1-1002],60
3,CCCCCC(c1ccccc1)n1oc(=O)c(Cc2ccccc2N(S(=O)(=O)C(F)(F)F)S(=O)(=O)C(F)(F)F)c1C (stereo not drawn) [Compound 1-1042],50
4,CSCCCn1oc(=O)c(Cc2ccccc2N(S(=O)(=O)C(F)(F)F)S(=O)(=O)C(F)(F)F)c1C [Compound 1-1003],40
5,Cc1c(Cc2ccccc2NS(=O)(=O)C(F)(F)F)c(=O)on1CC(F)(F)F [Compound 1-134],60
